Test results published in PubChem BioAssay (NCI).
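Grown in 96-well plates, cells were treated for 48 hours with each compound at five concentrations. Insufficient inhibition: endpoint recorded as highest concentration tested. GI50 = concentration required for 50% inhibition of growth. TGI: concentration producing complete growth inhibition.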

Tests used:
Experiment in all cases: NCI anticancer screen, dose series, 48 h
[1] = system: DMS 114 small cell lung
[2] = system: M19-MEL melanoma
[3] = system: RXF-631 renal
[4] = system: DLD-1 colon
[5] = system: MDA-MB-231 breast
[6] = system: MDA-N
[7] = system: BT-549 breast
[8] = system: DMS 273 small cell lung
[9] = system: HOP-18 NSCLC

Structure (SMILES)	GI50 [5] [µM]	TGI [5] [µM]	GI50 [7] [µM]	TGI [7] [µM]	other results
O=C1CCC2(c3ccccc3)Nc3cc(Cl)ccc3N12 (stereo not given)					TGI [1]: 57.3 µM; TGI [2]: 82.6 µM; TGI [3]: > 100 µM; TGI [4]: > 100 µM
CC[CH2][Pb]([CH2]CC)([CH2]CC)[NH]S(=O)(=O)c1ccc(C)cc1	0.0661	0.27	0.0209	0.0499	GI50 [6]: 0.0294 µM; TGI [6]: 0.14 µM
N#CC1C(N)=NNC12Nc1ccccc1N2 (stereo not given)	3.04	40.6	6.55	31.6	
FC(F)(F)c1ccc2nc(Nc3ccc(Cl)c(Cl)c3)c(-c3ccccc3)nc2c1					TGI [8]: > 100 µM; TGI [2]: > 100 µM; TGI [9]: > 100 µM
Fc1ccc(Nc2nccc(-c3c(-c4ccc(C(F)(F)F)cc4)nn4ncccc34)n2)cc1F	> 25	> 25	> 25	> 25	
CCCCC[C@H]1C/C=C2/C(=O)C(Cl)=C[C@@H]2C/C=C\CCCC(=O)O[C@@H](CCCCC)C/C=C2/C(=O)C(Cl)=C[C@@H]2C/C=C\CCCC(=O)O1	0.372	0.995	0.33	0.836	
CC(C)(Br)C(=O)/C=C/c1ccccc1		> 69.8		3.76	TGI [6]: 21.4 µM
CCOC(=O)c1c(C)n(Cc2ccc(Cl)cc2Cl)c2c1cc1oc(=O)c(=O)n3c(Cc4ccccc4)nc2c13	2.77	7.23	2.55	6.4	
CC(=O)C1=C([O-])C(C)OC1=O.CC(=O)C1=C([O-])C(C)OC1=O.[NH-]C1CCCC[C@H]1[NH-].[Pt+4] (stereo not given)					GI50 [8]: 44.9 µM; TGI [8]: > 100 µM; GI50 [2]: 56 µM; TGI [2]: > 100 µM; GI50 [4]: > 100 µM; TGI [4]: > 100 µM
COc1cnc2c(c1)C(=O)c1c-2n(CCCN2CCCC2)c(=O)c2cc(Cl)ccc12	6.15	15.2	3.8	12.9	
CCOC(=O)/C(C#N)=C1\N[C@H](C(=O)OCC)CO1					TGI [2]: > 100 µM; TGI [3]: > 100 µM; TGI [9]: > 100 µM; TGI [4]: > 100 µM
Cc1ncc([N+](=O)[O-])n1CCNC(=O)CCCn1cnc([N+](=O)[O-])n1		> 100			TGI [6]: > 100 µM
CC(=O)OC1C2(CC3N4C(=O)C5(CO)SSC4(CC31O)C(=O)N5C)OC(C)C(C)(C)C2=O (stereo not given)	< 0.01	0.0558	0.146	0.728	
O=c1oc2ccc(Cl)cc2c(=O)n1-c1ccc(I)cc1F	0.25	3.57	0.168	1	
COc1cc2cc(Oc3ccc(NC(=O)c4ccc(Cl)c(C(F)(F)F)c4)cc3)c(C)nc2cc1OC	11.4	27.5	8.86	70.2	
O=c1cccccc1NCCCCCCCCCNc1cccccc1=O					TGI [8]: 32.6 µM; TGI [1]: 19.1 µM; TGI [2]: 51 µM; TGI [4]: > 100 µM
CC1=CC(=O)C(C(C)=Nc2ccccc2Cl)C(=O)O1 (stereo not given)	> 100	> 100			
Nc1nc(Nc2cccc(F)c2)nc2ccccc12	13.8	34.2	30.2	> 100	
